Results on 28 compounds are retold here after US12459921B2, “Isoindoline compound, preparation method, pharmaceutical composition and use thereof” (SHANGHAI INSTITUTE OF MATERIA MEDICA, CHINESE ACADEMY OF …, priority 2018, dated 2025).

The structures appear in SMILES notation. Like-named read-outs stand apart in the source and are kept apart here.

One experiment relates to MM.1S cells. Put plainly: Inhibitory effect on the proliferation of MM.1S, MTS cell viability test. The experiment is classed as cell-based. To be noted: multiple myeloma MM.1S cells, 7 days incubation, read-out: Tumor cell inhibitory activity. The method, boiled down:
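MM.1S cells (20,000/well, RPMI 1640 with 10% FBS) exposed to 5-fold compound dilutions at 0.2% DMSO for 7 days at 37° C, 5% CO2. MTS added for 3-4 h; OD490-OD690 gave inhibition versus DMSO, IC50 fitted, mean of three experiments.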
On the technique in general: Tetrazolium assays rely on reduction of a dye to a coloured formazan, in cell work by metabolically active cells.

The subject of another experiment is MV-4-11 cells. The experiment in a line: Inhibitory effect on the proliferation of MV-4-11 cells, MTS cell viability test. In kind it is cell-based. To be noted: acute leukemia MV-4-11 cells, 7 days incubation, read-out: Tumor cell inhibitory activity. How it is done: Method of tumor cell proliferation inhibition test: the inventors tested all the example compounds on hematologic tumor cells, multiple myeloma MMTs cell line and acute leukemia cell MV-4-11 cell line of some examples. The activity test method and results are as follows.
2. The Inhibitory Effect of Compounds on the Proliferation of MV-4-11 Cells, MTS Cell Viability Test: 1). Experimental Method:
MV-4-11 cells were cultured and collected with IMDM and 10% fetal bovine serum. The cell concentration was diluted according to 7 days, and 180 ul of cell suspension was added to each well of a 96-well cell plate to 2000 cells. 20 ul of DMSO with a final concentration of 0.2% was added to the control wells. The compound was diluted 5-fold from the 10 mM stock solution, and 20 ul was also added to the compound cell wells (the final concentration of DMSO was 0.2%). The cells were placed in a 37° C., 5% CO2 incubator and incubated for 7 days. After the reaction solution was prepared according to the MTS kit (Promega, G5430), 20 μL was added to each well, incubated in a 37° C., 5% CO2 incubator for 3-4 h. The 490 nm absorbance value was read with a microtiter plate, and the 690 nm absorbance value was used as the background value. OD490-OD690 was used as the final initial data. The formula for calculating the inhibition rate of the compound was: inhibition rate=(ODDMSO-ODcompound)/(ODDMSO-Oblank)×100%. The compound's proliferation inhibition IC50 was fitted by Graph Pad Prism 5.0. The experiment was repeated three times, and the average and standard deviation was calculated according to three parallel experiments each time.

Take `CC(=O)N[C@@H](CCCc1cccc2c1CN(C1CCC(=O)NC1=O)C2=O)C(=O)NCc1ccccc1` (stereo partly drawn) [Example 166, (2S)-2-acetylamino-N-benzyl-5-(2-(2,6-dioxopiperidine-3-)-1-oxoisoindoline-4-)pentanamide]: the IC50 was 100 to 1000 nM in the experiment on MM.1S cells (Homo sapiens, MM1.S, 168 h) and 200 nM in the experiment with MV-4-11 cells (Homo sapiens, MV4-11, 168 h).

Regarding `CC(=O)N[C@@H](CCCc1cccc2c1CN(C1CCC(=O)NC1=O)C2=O)C(=O)NCc1cccc(Br)c1` (stereo partly drawn) [Example 182, (2S)-2-acetylamino-N-(3-bromobenzyl)-5-(2-(2,6-dioxopiperidine-3-)-1-oxoisoindoline-4-)pentanamide], the IC50 was less than 100 nM in the experiment on MM.1S cells (Homo sapiens, MM1.S, 168 h) and 17 nM in the experiment with MV-4-11 cells (Homo sapiens, MV4-11, 168 h). In the case of `Nc1cccc2c1C(=O)N(C1CCC(=O)NC1=O)C2=O` (stereo not drawn) [Pomalidomide, pomalidomide, reference compound], the IC50 is less than 100 nM in the experiment on MM.1S cells (Homo sapiens, MM1.S, 168 h) and more than 20000 nM in the experiment on MV-4-11 cells (Homo sapiens, MV4-11, 168 h).

For the compound `O=C1CCC(N2Cc3c(CCC[C@H](NC(=O)C4CCC4)C(=O)NCc4ccccc4)cccc3C2=O)C(=O)N1` (stereo partly drawn) [Example 173, N-((2S)-1-(benzylamine)-5-(2-(2,6-dioxopiperidine-3-)-1-oxoisoindoline-4-)-1-oxopentyl-2-)cyclobutylcarboxamide], the IC50 with MM.1S cells (Homo sapiens, MM1.S, 168 h) was less than 100 nM; in the experiment with MV-4-11 cells (Homo sapiens, MV4-11, 168 h), 29 nM. The matching figures for `Cc1ccc(NC(=O)CCCOc2cccc3c2CN(C2CCC(=O)NC2=O)C3=O)cc1Cl` (stereo not drawn) [Example 158, N-(3-chloro-4-methylphenyl)-4-((2-(2,6-dioxopiperidine-3-)-1-oxoisoindoline-4-)oxy)butanamide]: less than 100 nM and 14 nM. For `CC(C)C(=O)N[C@@H](CCCc1cccc2c1CN(C1CCC(=O)NC1=O)C2=O)C(=O)NCc1ccccc1` (stereo partly drawn) [Example 167, (2S)-N-benzyl-5-(2-(2,6-dioxopiperidine-3-)-1-oxoisoindoline-4-)-2-iso butyramidopentaneamide] the same measures were less than 100 nM and 35 nM. As to `O=C1CCC(N2Cc3c(CCCCCN4CCC(c5noc6cc(F)ccc56)CC4)cccc3C2=O)C(=O)N1` (stereo not drawn) [Example 226, 3-(4-(5-(4-(6-fluorobenzisoxazole-3-yl)piperidin-1-yl)pentyl)-1-oxoisoindoline-2-yl)piperidine-2,6-], the IC50 with MM.1S cells was 1000 to 20000 nM; with MV-4-11 cells it was 510 nM. In the case of `O=C1CCC(N2Cc3c(OCc4ccc(CN5CCOCC5)cc4)cccc3C2=O)C(=O)N1` (stereo not drawn) [CC-220, reference compound], the IC50 with MM.1S cells (Homo sapiens, MM1.S, 168 h) is less than 100 nM; in the experiment with MV-4-11 cells (Homo sapiens, MV4-11, 168 h), more than 20000 nM.

For `Nc1cccc2c1CN(C1CCC(=O)NC1=O)C2=O` (stereo not drawn) [Lenalidomide, lenalidomide, reference compound], the IC50 was 100 to 1000 nM with MM.1S cells (Homo sapiens, MM1.S, 168 h) and more than 20000 nM with MV-4-11 cells (Homo sapiens, MV4-11, 168 h). For `O=C1CCC(N2Cc3c(CCCCCN4CCc5ccc(Br)cc54)cccc3C2=O)C(=O)N1` (stereo not drawn) [Example 114, 3-(4-(5-(5-bromoindoline-1-)pentyl)-1-oxoisoindoline-2-)piperidine-2,6-dione] the same measures were 100 to 1000 nM and 220 nM. For the compound `O=C1CCC(N2Cc3c(CCCCCN4CCC(c5noc6cc(F)ccc56)CC4)cccc3C2=O)C(=O)N1` (stereo not drawn) [Example 22, 3-(4-(5-(4-(6-fluorobenzo[d]isoxazole-3-)piperidine-1-)pentyl)-1-oxoisoindoline-2-)piperidine-2,6-dione], the values for the IC50 with MM.1S cells and in the experiment on MV-4-11 cells were less than 100 nM and 110 nM, respectively. As for `O=C1CCC(N2Cc3c(CCCCCN4CCC5(CC4)C(=O)Nc4cc(Cl)ccc45)cccc3C2=O)C(=O)N1` (stereo not drawn) [Example 275, 3-(4-(5-(6-chloro-2-oxospiro[dihydroindole-3,4-piperidin]-1-yl)pentyl)-1-oxoisoindoline-2-yl)piperidine-2,6-dione], the IC50 in the experiment with MM.1S cells (Homo sapiens, MM1.S, 168 h) is 100 to 1000 nM; in the experiment with MV-4-11 cells (Homo sapiens, MV4-11, 168 h) it was 630 nM.

In the case of `O=C1CCC(N2Cc3c(CCCCCN4CCC5(CCc6ccccc65)CC4)cccc3C2=O)C(=O)N1` (stereo not drawn) [Example 143, 3-(4-(5-(2,3-dihydrospiro[indene-1,4′-piperidine]-1′-)pentyl)-1-oxoisoindoline-2-)piperidine-2,6-dione], the IC50 was less than 100 nM in the experiment with MM.1S cells (Homo sapiens, MM1.S, 168 h) and 610 nM with MV-4-11 cells (Homo sapiens, MV4-11, 168 h). The matching figures for `O=C1CCC(N2Cc3c(CCCCCN4CCc5ccccc54)cccc3C2=O)C(=O)N1` (stereo not drawn) [Example 107, 3-(4-(5-(indoline-1-)pentyl)-1-oxoisoindoline-2-)piperidine-2,6-dione]: less than 100 nM and 180 nM.

As for `Cc1nc2cccc(N)c2c(=O)n1C1CCC(=O)NC1=O` (stereo not drawn) [CC-122, reference compound], the IC50 with MM.1S cells (Homo sapiens, MM1.S, 168 h) is less than 100 nM; in the experiment on MV-4-11 cells (Homo sapiens, MV4-11, 168 h) it was more than 20000 nM. For `N#CC1(c2cc(Cl)ccc2Cl)CCN(CCCCCc2cccc3c2CN(C2CCC(=O)NC2=O)C3=O)CC1` (stereo not drawn) [Example 248, 4-(2,5-dichlorophenyl)-1-(5-(2-(2,6-dioxopiperidine-3-yl)-1-oxoisoindoline-4-yl)pentyl)piperidine-4-carbonitrile] the same measures were 1000 to 20000 nM and 660 nM. With `O=C1CCC(N2Cc3c(CCCCCN4CCN(c5c(Cl)cccc5Cl)CC4)cccc3C2=O)C(=O)N1` (stereo not drawn) [Example 235, 3-(4-(5-(4-(2,6-dichlorophenyl)piperazine-1-yl)pentyl)-1-oxoisoindoline-2-yl)piperidine-2,6-dione], the IC50 is 100 to 1000 nM with MM.1S cells (Homo sapiens, MM1.S, 168 h) and 480 nM with MV-4-11 cells (Homo sapiens, MV4-11, 168 h). `CC(=O)N[C@@H](CCCc1cccc2c1CN(C1CCC(=O)NC1=O)C2=O)C(=O)N[C@@H]1CCc2ccccc21` (stereo partly drawn) [Example 177, (2S)-2-acetylamino-N—((R)-2,3-dihydro-1H-indene-1-)-5-(2-(2,6-dioxopiperidine-3-)-1-oxoisoindoline-4-)pentanamide]: the IC50 with MM.1S cells (Homo sapiens, MM1.S, 168 h) fell in the range of 100 to 1000 nM. Same read-out and setting: then `Cc1ccc(NC(=O)[C@H](CCCc2cccc3c2CN(C2CCC(=O)NC2=O)C3=O)NC(=O)C2CC2)cc1Cl` (stereo partly drawn) [Example 185, N-((2S)-1-((3-chloro-4-methylphenyl)amino)-5-(2-(2,6-dioxopiperidine-3-)-1-oxoisoindoline-4-)-1-oxopentyl-2-)cyclopropylformamide], with less than 100 nM.

Take `N#CC1(c2cccc(Cl)c2)CCN(CCCOc2cccc3c2CN(C2CCC(=O)NC2=O)C3=O)CC1` (stereo not drawn) [Example 57, 4-(3-chlorophenyl)-1-(3-((2-(2,6-dioxopiperidine-3-)-1-oxoisoindoline-4-)oxy)propyl)piperidine-4-carbonitrile]: in the experiment on MM.1S cells (Homo sapiens, MM1.S, 168 h), the IC50 was less than 100 nM. Still for that read-out and setting: then `O=C1CCC(N2Cc3c(OCCCCCCOc4ccnc5ccccc45)cccc3C2=O)C(=O)N1` (stereo not drawn) [Example 14, 3-(1-oxo-4-((6-(quinoline-4-oxy)hexyl)oxy)isoindoline-2-)piperidine-2,6-dione], with less than 100 nM. In the case of `O=C1CCC(N2C(=O)c3cccc(OCCCCOc4ccnc5ccccc45)c3C2=O)C(=O)N1` (stereo not drawn) [Example 47, 2-(2,6-dioxopiperidine-3-)-4-(4-(quinoline-4-oxy)butoxy)isoindoline-1,3-dione], the IC50 in the experiment on MM.1S cells (Homo sapiens, MM1.S, 168 h) is less than 100 nM. For the compound `O=C1CCC(N2Cc3c(CCCOc4ccnc5ccccc45)cccc3C2=O)C(=O)N1` (stereo not drawn) [Example 2, 3-(1-oxo-4-(3-(quinoline-4-oxy)propyl)isoindoline-2-)piperidine-2,6-dione], the IC50 in the experiment on MM.1S cells (Homo sapiens, MM1.S, 168 h) is 100 to 1000 nM. On to `N#CC1(c2ccccc2F)CCN(CCCOc2cccc3c2CN(C2CCC(=O)NC2=O)C3=O)CC1` (stereo not drawn) [Example 61, 1-(3-((2-(2,6-dioxopiperidine-3-)-1-oxoisoindoline-4-)oxy)propyl)-4-(2-fluorophenyl)piperidine-4-carbonitrile], for which, in the experiment on MM.1S cells (Homo sapiens, MM1.S, 168 h), the IC50 was 100 to 1000 nM. On the same count and under the same terms, then `N[C@@H](CCCc1cccc2c1CN(C1CCC(=O)NC1=O)C2=O)C(=O)NC1C2CC3CC(C2)CC1C3` (stereo partly drawn) [Example 176, (2S)—N-((1S,3S,5S,7 S)-adamantane-2-)-2-amino-5-(2-(2,6-dioxopiperidine-3-)-1-oxoisoindoline-4-)pentanamide], with more than 20000 nM; and `C[C@]1(N2C(=O)c3cccc(OCCCN4CCC(C#N)(c5ccccc5Cl)CC4)c3C2=O)CCC(=O)NC1=O` [Example 50, (S)-4-(2-chlorophenyl)-1-(3-((2-(3-methyl-2,6-dioxopiperidine-3-)-1,3-dioxoisoindoline-4-)oxy)propyl)piperidine-4-carbonitrile], with 1000 to 20000 nM; and `O=C1CCC(N2Cc3c(CCCCCN4CCN(c5cccc(Cl)c5Cl)CC4)cccc3C2=O)C(=O)N1` (stereo not drawn) [Example 26, 3-(4-(5-(4-(2,3-dichlorophenyl)piperazine-1-)pentyl)-1-oxoisoindoline-2-)piperidine-2,6-dione], with less than 100 nM. The same measure, in the same setting: then `O=C1CCC(N2Cc3c(CCCCCN4CCC5(C=Cc6ccccc65)CC4)cccc3C2=O)C(=O)N1` (stereo not drawn) [Example 141, 3-(1-oxo-4-(5-(spiro[indene-1,4′-piperidine]-1′-)pentyl)isoindoline-2-)piperidine-2,6-dione], with 100 to 1000 nM.
